Tests used:
Parameters in all cases: scale not given here
SETVI Foxtail, Green [1] = test: Postemergence herbicidal evaluation, SETVI; assay type: in vivo, Setaria viridis, (L.) Beau; conditions: postemergence spray, rated about two-three weeks after treatment
Summary of the method: (§1)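 Visual injury rating ~2–3 wk post-spray; replicate tests averaged. Two-week-old seedlings; foliar spray at 40 psi; 0.006–0.400 kg ai/ha in 80/20 acetone/water + 1.0% methylated seed oil.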

[2] = system: IPOHE Morningglory, Ivyleaf; test: Postemergence herbicidal evaluation, IPOHE; assay type: in vivo, Ipomoea hederacea, (L.) Jacq.; conditions: postemergence spray, rated about two-three weeks after treatment
Summary of the method: as §1

ORYSAT Rice, Tebonnet [3] = test: Preemergence herbicidal evaluation, ORYSAT; assay type: in vivo, Oryza sativa, (L.); conditions: preemergence
Summary of the method: (§2)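 Seeds mixed with potting soil in cups, then sprayed preemergence with aqueous acetone test solution at about 0.013 to 0.800 kg per hectare equivalent. Cups kept under standard greenhouse care; plants rated on a visual scale four to five weeks after treatment.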

GLXMAW Soybean, Williams [4] = test: Postemergence herbicidal evaluation, GLXMAW; assay type: in vivo, Glycine max, (L.) Merr. cv Williams; conditions: postemergence spray, rated about two-three weeks after treatment
Summary of the method: as §1

SETVI Foxtail, Green [5] = test: Preemergence herbicidal evaluation, SETVI; assay type: in vivo, Setaria viridis, (L.) Beau; conditions: preemergence
Summary of the method: as §2

ECHOG Barnyardgrass [6] = test: Postemergence herbicidal evaluation, ECHOG; assay type: in vivo, Echinochloa crus-galli, (L.) Beau; conditions: postemergence spray, rated about two-three weeks after treatment
Summary of the method: as §1

[7] = system: TRZAWR Wheat, Winter, cv Riband; test: Preemergence herbicidal evaluation, TRZAWR; assay type: in vivo, Triticum aestivum; conditions: preemergence
Summary of the method: as §2

CASOB Sicklepod [8] = test: Preemergence herbicidal evaluation, CASOB; assay type: in vivo, Cassia obtusifolia, L.; conditions: preemergence
Summary of the method: as §2

CASOB Sicklepod [9] = test: Postemergence herbicidal evaluation, CASOB; assay type: in vivo, Cassia obtusifolia, L.; conditions: postemergence spray, rated about two-three weeks after treatment
Summary of the method: as §1

ZEAMX Corn, Field [10] = test: Preemergence herbicidal evaluation, ZEAMX; assay type: in vivo, Zea mays, L. (Sammel-Bezeichnung); conditions: preemergence
Summary of the method: as §2

ABUTH Velvetleaf [11] = test: Postemergence herbicidal evaluation, ABUTH; assay type: in vivo, Abutilon theophrasti, Medic.; conditions: postemergence spray, rated about two-three weeks after treatment
Summary of the method: as §1

GALAP Galium [12] = test: Preemergence herbicidal evaluation, GALAP; assay type: in vivo, Galium aparine; conditions: preemergence
Summary of the method: as §2

ORYSAT Rice, Tebonnet [13] = test: Postemergence herbicidal evaluation, ORYSAT; assay type: in vivo, Oryza sativa, (L.); conditions: postemergence spray, rated about two-three weeks after treatment
Summary of the method: as §1

[14] = system: CHEAL Lambsquarters, Common; test: Preemergence herbicidal evaluation, CHEAL; assay type: in vivo, Chenopodium album, L.; conditions: preemergence
Summary of the method: as §2

[15] = system: IPOHE Morningglory, Ivyleaf; test: Preemergence herbicidal evaluation, IPOHE; assay type: in vivo, Ipomoea hederacea, (L.) Jacq.; conditions: preemergence
Summary of the method: as §2

ZEAMX Corn, Field [16] = test: Postemergence herbicidal evaluation, ZEAMX; assay type: in vivo, Zea mays, L. (Sammel-Bezeichnung); conditions: postemergence spray, rated about two-three weeks after treatment
Summary of the method: as §1

GLXMAW Soybean, Williams [17] = test: Preemergence herbicidal evaluation, GLXMAW; assay type: in vivo, Glycine max, (L.) Merr. cv Williams; conditions: preemergence
Summary of the method: as §2

AMBEL Ragweed, Common [18] = test: Preemergence herbicidal evaluation, AMBEL; assay type: in vivo, Ambrosia artemisifolia, L.; conditions: preemergence
Summary of the method: as §2

ABUTH Velvetleaf [19] = test: Preemergence herbicidal evaluation, ABUTH; assay type: in vivo, Abutilon theophrasti, Medic.; conditions: preemergence
Summary of the method: as §2

[20] = system: TRZAWR Wheat, Winter, cv Riband; test: Postemergence herbicidal evaluation, TRZAWR; assay type: in vivo, Triticum aestivum; conditions: postemergence spray, rated about two-three weeks after treatment
Summary of the method: as §1

AMBEL Ragweed, Common [21] = test: Postemergence herbicidal evaluation, AMBEL; assay type: in vivo, Ambrosia artemisifolia, L.; conditions: postemergence spray, rated about two-three weeks after treatment
Summary of the method: as §1

GALAP Galium [22] = test: Postemergence herbicidal evaluation, GALAP; assay type: in vivo, Galium aparine; conditions: postemergence spray, rated about two-three weeks after treatment
Summary of the method: as §1

ECHOG Barnyardgrass [23] = test: Preemergence herbicidal evaluation, ECHOG; assay type: in vivo, Echinochloa crus-galli, (L.) Beau; conditions: preemergence
Summary of the method: as §2

[24] = system: CHEAL Lambsquarters, Common; test: Postemergence herbicidal evaluation, CHEAL; assay type: in vivo, Chenopodium album, L.; conditions: postemergence spray, rated about two-three weeks after treatment
Summary of the method: as §1

COC(=O)COc1ccc(C)c(-n2nnc3cc(F)c(-n4c(=O)cc(C(F)(F)F)n(C)c4=O)cc32)c1 [Example 38]
Postemergence herbicidal rating SETVI (SETVI Foxtail, Green [1]; 0.008 kg/ha): 0.0
Postemergence herbicidal rating SETVI (SETVI Foxtail, Green [1]; 0.016 kg/ha): 0.0
Postemergence herbicidal rating SETVI (SETVI Foxtail, Green [1]; 0.032 kg/ha): 7.0
Postemergence herbicidal rating SETVI (SETVI Foxtail, Green [1]; 0.062 kg/ha): 9.0
Postemergence herbicidal rating IPOHE ([2]; 0.008 kg/ha): 5.0
Postemergence herbicidal rating IPOHE ([2]; 0.016 kg/ha): 5.0
Postemergence herbicidal rating IPOHE ([2]; 0.032 kg/ha): 9.0
Postemergence herbicidal rating IPOHE ([2]; 0.062 kg/ha): 9.0
ORYSAT herbicidal rating (ORYSAT Rice, Tebonnet [3]; rate 0.016 kg/ha): 0.0
ORYSAT herbicidal rating (ORYSAT Rice, Tebonnet [3]; rate 0.032 kg/ha): 0.0
ORYSAT herbicidal rating (ORYSAT Rice, Tebonnet [3]; rate 0.062 kg/ha): 0.0
ORYSAT herbicidal rating (ORYSAT Rice, Tebonnet [3]; rate 0.125 kg/ha): 0.0
Postemergence herbicidal rating GLXMAW (GLXMAW Soybean, Williams [4]; 0.008 kg/ha): 5.5
Postemergence herbicidal rating GLXMAW (GLXMAW Soybean, Williams [4]; 0.016 kg/ha): 5.5
Postemergence herbicidal rating GLXMAW (GLXMAW Soybean, Williams [4]; 0.032 kg/ha): 6.0
Postemergence herbicidal rating GLXMAW (GLXMAW Soybean, Williams [4]; 0.062 kg/ha): 7.5
SETVI herbicidal rating (SETVI Foxtail, Green [5]; rate 0.016 kg/ha): 0.0
SETVI herbicidal rating (SETVI Foxtail, Green [5]; rate 0.032 kg/ha): 0.0
SETVI herbicidal rating (SETVI Foxtail, Green [5]; rate 0.062 kg/ha): 0.0
SETVI herbicidal rating (SETVI Foxtail, Green [5]; rate 0.125 kg/ha): 9.0
Postemergence herbicidal rating ECHCG (ECHOG Barnyardgrass [6]; 0.008 kg/ha): 0.0
Postemergence herbicidal rating ECHCG (ECHOG Barnyardgrass [6]; 0.016 kg/ha): 0.0
Postemergence herbicidal rating ECHCG (ECHOG Barnyardgrass [6]; 0.032 kg/ha): 3.0
Postemergence herbicidal rating ECHCG (ECHOG Barnyardgrass [6]; 0.062 kg/ha): 3.0
TRZAWR herbicidal rating ([7]; rate 0.016 kg/ha): 0.0
TRZAWR herbicidal rating ([7]; rate 0.032 kg/ha): 0.0
TRZAWR herbicidal rating ([7]; rate 0.062 kg/ha): 0.0
TRZAWR herbicidal rating ([7]; rate 0.125 kg/ha): 0.0
CASOB herbicidal rating (CASOB Sicklepod [8]; rate 0.016 kg/ha): 0.0
CASOB herbicidal rating (CASOB Sicklepod [8]; rate 0.032 kg/ha): 0.0
CASOB herbicidal rating (CASOB Sicklepod [8]; rate 0.062 kg/ha): 0.0
CASOB herbicidal rating (CASOB Sicklepod [8]; rate 0.125 kg/ha): 2.0
Postemergence herbicidal rating CASOB (CASOB Sicklepod [9]; 0.008 kg/ha): 0.0
Postemergence herbicidal rating CASOB (CASOB Sicklepod [9]; 0.016 kg/ha): 0.0
Postemergence herbicidal rating CASOB (CASOB Sicklepod [9]; 0.032 kg/ha): 0.0
Postemergence herbicidal rating CASOB (CASOB Sicklepod [9]; 0.062 kg/ha): 1.0
ZEAMX herbicidal rating (ZEAMX Corn, Field [10]; rate 0.016 kg/ha): 0.0
ZEAMX herbicidal rating (ZEAMX Corn, Field [10]; rate 0.032 kg/ha): 0.0
ZEAMX herbicidal rating (ZEAMX Corn, Field [10]; rate 0.062 kg/ha): 0.0
ZEAMX herbicidal rating (ZEAMX Corn, Field [10]; rate 0.125 kg/ha): 0.0
Postemergence herbicidal rating ABUTH (ABUTH Velvetleaf [11]; 0.008 kg/ha): 3.0
Postemergence herbicidal rating ABUTH (ABUTH Velvetleaf [11]; 0.016 kg/ha): 8.0
Postemergence herbicidal rating ABUTH (ABUTH Velvetleaf [11]; 0.032 kg/ha): 9.0
Postemergence herbicidal rating ABUTH (ABUTH Velvetleaf [11]; 0.062 kg/ha): 9.0
GALAP herbicidal rating (GALAP Galium [12]; rate 0.016 kg/ha): 0.0
GALAP herbicidal rating (GALAP Galium [12]; rate 0.032 kg/ha): 0.0
GALAP herbicidal rating (GALAP Galium [12]; rate 0.062 kg/ha): 0.0
GALAP herbicidal rating (GALAP Galium [12]; rate 0.125 kg/ha): 0.0
Postemergence herbicidal rating ORYSAT (ORYSAT Rice, Tebonnet [13]; 0.008 kg/ha): 1.0
Postemergence herbicidal rating ORYSAT (ORYSAT Rice, Tebonnet [13]; 0.016 kg/ha): 2.0
Postemergence herbicidal rating ORYSAT (ORYSAT Rice, Tebonnet [13]; 0.032 kg/ha): 3.5
Postemergence herbicidal rating ORYSAT (ORYSAT Rice, Tebonnet [13]; 0.062 kg/ha): 6.0
CHEAL herbicidal rating ([14]; rate 0.016 kg/ha): 9.0
CHEAL herbicidal rating ([14]; rate 0.032 kg/ha): 9.0
CHEAL herbicidal rating ([14]; rate 0.062 kg/ha): 9.0
CHEAL herbicidal rating ([14]; rate 0.125 kg/ha): 9.0
IPOHE herbicidal rating ([15]; rate 0.016 kg/ha): 0.0
IPOHE herbicidal rating ([15]; rate 0.032 kg/ha): 0.0
IPOHE herbicidal rating ([15]; rate 0.062 kg/ha): 0.0
Postemergence herbicidal rating ZEAMX (ZEAMX Corn, Field [16]; 0.008 kg/ha): 7.5
Postemergence herbicidal rating ZEAMX (ZEAMX Corn, Field [16]; 0.016 kg/ha): 8.0
Postemergence herbicidal rating ZEAMX (ZEAMX Corn, Field [16]; 0.032 kg/ha): 8.0
Postemergence herbicidal rating ZEAMX (ZEAMX Corn, Field [16]; 0.062 kg/ha): 8.0
GLXMAW herbicidal rating (GLXMAW Soybean, Williams [17]; rate 0.016 kg/ha): 0.0
GLXMAW herbicidal rating (GLXMAW Soybean, Williams [17]; rate 0.032 kg/ha): 0.0
GLXMAW herbicidal rating (GLXMAW Soybean, Williams [17]; rate 0.062 kg/ha): 0.0
GLXMAW herbicidal rating (GLXMAW Soybean, Williams [17]; rate 0.125 kg/ha): 0.0
AMBEL herbicidal rating (AMBEL Ragweed, Common [18]; rate 0.016 kg/ha): 0.0
AMBEL herbicidal rating (AMBEL Ragweed, Common [18]; rate 0.032 kg/ha): 0.0
AMBEL herbicidal rating (AMBEL Ragweed, Common [18]; rate 0.062 kg/ha): 0.0
AMBEL herbicidal rating (AMBEL Ragweed, Common [18]; rate 0.125 kg/ha): 9.0
ABUTH herbicidal rating (ABUTH Velvetleaf [19]; rate 0.016 kg/ha): 0.0
ABUTH herbicidal rating (ABUTH Velvetleaf [19]; rate 0.032 kg/ha): 0.0
ABUTH herbicidal rating (ABUTH Velvetleaf [19]; rate 0.062 kg/ha): 2.0
ABUTH herbicidal rating (ABUTH Velvetleaf [19]; rate 0.125 kg/ha): 9.0
Postemergence herbicidal rating TRZAWR ([20]; 0.008 kg/ha): 3.5
Postemergence herbicidal rating TRZAWR ([20]; 0.016 kg/ha): 4.5
Postemergence herbicidal rating TRZAWR ([20]; 0.032 kg/ha): 6.0
Postemergence herbicidal rating TRZAWR ([20]; 0.062 kg/ha): 8.0
Postemergence herbicidal rating AMBEL (AMBEL Ragweed, Common [21]; 0.008 kg/ha): 2.0
Postemergence herbicidal rating AMBEL (AMBEL Ragweed, Common [21]; 0.016 kg/ha): 7.0
Postemergence herbicidal rating AMBEL (AMBEL Ragweed, Common [21]; 0.032 kg/ha): 7.0
Postemergence herbicidal rating AMBEL (AMBEL Ragweed, Common [21]; 0.062 kg/ha): 9.0
Postemergence herbicidal rating GALAP (GALAP Galium [22]; 0.008 kg/ha): 0.0
Postemergence herbicidal rating GALAP (GALAP Galium [22]; 0.016 kg/ha): 0.0
Postemergence herbicidal rating GALAP (GALAP Galium [22]; 0.032 kg/ha): 3.0
Postemergence herbicidal rating GALAP (GALAP Galium [22]; 0.062 kg/ha): 4.0
ECHCG herbicidal rating (ECHOG Barnyardgrass [23]; rate 0.016 kg/ha): 0.0
ECHCG herbicidal rating (ECHOG Barnyardgrass [23]; rate 0.032 kg/ha): 0.0
ECHCG herbicidal rating (ECHOG Barnyardgrass [23]; rate 0.062 kg/ha): 0.0
ECHCG herbicidal rating (ECHOG Barnyardgrass [23]; rate 0.125 kg/ha): 0.0
Postemergence herbicidal rating CHEAL ([24]; 0.008 kg/ha): 0.0
Postemergence herbicidal rating CHEAL ([24]; 0.016 kg/ha): 0.0
Postemergence herbicidal rating CHEAL ([24]; 0.032 kg/ha): 2.0
Postemergence herbicidal rating CHEAL ([24]; 0.062 kg/ha): 3.0

From US20020111274A1, “1-alkyl-3-[1-(substituted phenyl) benzotriazol-6-yl] uracils” (BASF Aktiengesellschaft, priority 2000, published 2002)
